Measured values taken from US12662489B2 (Sitryx Therapeutics Limited, priority 2023, dated 2026).

Assays:
[1] = molecular target: T1, MTHFD1 recombinant human enzyme (Homo sapiens, UniProt P11586); experiment: MTHFD1 inhibition assay (NAD(P)H-Glo luminescence); settings: MTHFD1 IC50, recombinant human enzyme 200 nM, NADP, band
T1 sequence (P11586 2-291 limits assumed): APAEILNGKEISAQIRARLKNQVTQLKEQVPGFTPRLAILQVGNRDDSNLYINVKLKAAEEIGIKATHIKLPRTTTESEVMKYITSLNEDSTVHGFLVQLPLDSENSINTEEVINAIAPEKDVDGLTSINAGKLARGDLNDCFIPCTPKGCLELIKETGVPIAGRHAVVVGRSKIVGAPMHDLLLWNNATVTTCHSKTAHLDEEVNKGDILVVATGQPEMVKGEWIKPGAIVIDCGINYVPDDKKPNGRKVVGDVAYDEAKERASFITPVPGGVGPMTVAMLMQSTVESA

[2] = molecular target: T2, MTHFD2 recombinant human enzyme (Homo sapiens, UniProt P13995); experiment: MTHFD2 inhibition assay (NAD(P)H-Glo luminescence); settings: for MTHFD1/MTHFD2 IC50 ratio: selectivity of MTHFD2 inhibition over MTHFD1, band
T2 sequence (P13995 36-350): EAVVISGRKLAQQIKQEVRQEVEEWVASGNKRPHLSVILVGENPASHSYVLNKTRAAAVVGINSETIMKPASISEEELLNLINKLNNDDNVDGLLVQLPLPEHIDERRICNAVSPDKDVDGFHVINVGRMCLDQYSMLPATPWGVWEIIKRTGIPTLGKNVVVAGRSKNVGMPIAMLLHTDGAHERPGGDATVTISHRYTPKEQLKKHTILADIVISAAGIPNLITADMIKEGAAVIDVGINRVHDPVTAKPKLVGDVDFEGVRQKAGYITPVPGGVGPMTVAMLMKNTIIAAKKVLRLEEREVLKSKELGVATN

| IC50 [1] | IC50 [2] | SMILES | MTHFD1/MTHFD2 IC50 ratio [2] |
| --- | --- | --- | --- |
| 10 to 100 nM | 1 to 10 nM | COC[C@H]1CN(c2cc(C)c3c4c(c(=O)oc3c2C)CN(C(=O)c2ccc(C(=O)NS(=O)(=O)N(C)C)c(N3CCC(F)(F)C3)c2)CC4)CCN1C [Example 82, (R)-2-(3,3-difluoropyrrolidin-1-yl)-N-(N,N-dimethylsulfamoyl)-4-(8-(3-(methoxymethyl)-4-methylpiperazin-1-yl)-7,10-dimethyl-5-oxo-1,3,4,5-tetrahydro-2H-chromeno[3,4-c]pyridine-3-carbonyl)benzamide] |  |
| 10 to 100 nM | 1 to 10 nM | COC[C@H]1CN(c2cc(C)c3c4c(c(=O)oc3c2C)CN(C(=O)c2ccc(C(=O)NS(=O)(=O)C3(C)CC3)c(N3CCC(C)(C)C3)c2)CC4)CCN1C [Example 87, (R)-2-(3,3-dimethylpyrrolidin-1-yl)-4-(8-(3-(methoxymethyl)-4-methylpiperazin-1-yl)-7,10-dimethyl-5-oxo-1,3,4,5-tetrahydro-2H-chromeno[3,4-c]pyridine-3-carbonyl)-N-((1-methylcyclopropyl)sulfonyl)benzamide] | G (^ 3 to 9.0) |
| 10 to 100 nM | 1 to 10 nM | COC[C@H]1CN(c2cc(C)c3c4c(c(=O)oc3c2C)CN(C(=O)c2ccc(C(=O)NS(=O)(=O)C3(C)CC3)c(N3CCC(F)(F)C3)c2)CC4)CCN1C [Example 81, (R)-2-(3,3-difluoropyrrolidin-1-yl)-4-(8-(3-(methoxymethyl)-4-methylpiperazin-1-yl)-7,10-dimethyl-5-oxo-1,3,4,5-tetrahydro-2H-chromeno[3,4-c]pyridine-3-carbonyl)-N-((1-methylcyclopropyl)sulfonyl)benzamide] |  |
| 1000 to 5000 nM | 10 to 100 nM | COC[C@H]1CN(c2cc(C)c3c4c(c(=O)oc3c2C)CN(C(=O)c2cc(OC(C)C)c(C(=O)NS(=O)(=O)N3CCCC3)c(C(F)(F)F)c2)CC4)CCN1C [Example 161, (R)-2-isopropoxy-4-(8-(3-(methoxymethyl)-4-methylpiperazin-1-yl)-7,10-dimethyl-5-oxo-1,3,4,5-tetrahydro-2H-chromeno[3,4-c]pyridine-3-carbonyl)-N-(pyrrolidin-1-ylsulfonyl)-6-(trifluoromethyl)benzamide] | J (>30) |
| 100 to 1000 nM | 10 to 100 nM | COC[C@H]1CN(c2cc(C)c3c4c(c(=O)oc3c2C)CN(C(=O)c2ccc(C(=O)NS(=O)(=O)C3(C)CC3)c(N3CCC[C@H]3C)c2)CC4)CCN1C [Example 123, 4-(8-((R)-3-(methoxymethyl)-4-methylpiperazin-1-yl)-7,10-dimethyl-5-oxo-1,3,4,5-tetrahydro-2H-chromeno[3,4-c]pyridine-3-carbonyl)-N-((1-methylcyclopropyl)sulfonyl)-2-((R)-2-methylpyrrolidin-1-yl)benzamide] | F (<3) |
| 100 to 1000 nM | 10 to 100 nM | CCOc1cc(C(=O)N2CCc3c(c(=O)oc4c(C)c(N5CCN(C)[C@@H](COC)C5)cc(C)c34)C2)c(F)cc1C(=O)NS(=O)(=O)N1CC2(CCC2)C1 [Example 220, (R)-N-((2-azaspiro[3.3]heptan-2-yl)sulfonyl)-2-ethoxy-5-fluoro-4-(8-(3-(methoxymethyl)-4-methylpiperazin-1-yl)-7,10-dimethyl-5-oxo-1,3,4,5-tetrahydro-2H-chromeno[3,4-c]pyridine-3-carbonyl)benzamide] | H (>9.0 to 30) |
| 100 to 1000 nM | 10 to 100 nM | COC[C@H]1CN(c2cc(Cl)c3c4c(c(=O)oc3c2C)CN(C(=O)c2cc(N(C)C)c(C(=O)NS(=O)(=O)N3CCC(C(F)(F)F)CC3)cc2F)CC4)CCN1C [Example 293, (R)-4-(10-chloro-8-(3-(methoxymethyl)-4-methylpiperazin-1-yl)-7-methyl-5-oxo-1,3,4,5-tetrahydro-2H-chromeno[3,4-c]pyridine-3-carbonyl)-2-(dimethylamino)-5-fluoro-N-((4-(trifluoromethyl)piperidin-1-yl)sulfonyl)benzamide] | J (>30) |
| 100 to 1000 nM | 10 to 100 nM | COC[C@H]1CN(c2cc(C)c3c4c(c(=O)oc3c2C)CN(C(=O)c2ccc(C(=O)NS(=O)(=O)N(C)C)c(OC3CCC3)c2C)CC4)CCN1C [Example 179] | G (^ 3 to 9.0) |
| 1 to 10 nM | 1 to 10 nM | COC[C@H]1CN(c2cc(C)c3c4c(c(=O)oc3c2C)CN(C(=O)c2ccc(C(=O)NS(=O)(=O)N(C)C)c(O[C@H]3C[C@@H]5C[C@@H]5C3)c2F)CC4)CCN1C [Example 67, 2-(((1R,3s,5S)-bicyclo[3.1.0]hexan-3-yl)oxy)-N-(N,N-dimethylsulfamoyl)-3-fluoro-4-(8-((R)-3-(methoxymethyl)-4-methylpiperazin-1-yl)-7,10-dimethyl-5-oxo-1,3,4,5-tetrahydro-2H-chromeno[3,4-c]pyridine-3-carbonyl)benzamide] | F (<3) |

| SMILES | IC50 [1] | IC50 [2] | MTHFD1/MTHFD2 IC50 ratio [2] |
| --- | --- | --- | --- |
| COC[C@H]1CN(c2cc(C)c3c4c(c(=O)oc3c2C)CN(C(=O)c2ccc(C(=O)NS(=O)(=O)N3C5CCC3CC5)c(OC3CC3)c2F)CC4)CCN1C [Example 213, (R)-N-((7-azabicyclo[2.2.1]heptan-7-yl)sulfonyl)-2-cyclopropoxy-3-fluoro-4-(8-(3-(methoxymethyl)-4-methylpiperazin-1-yl)-7,10-dimethyl-5-oxo-1,3,4,5-tetrahydro-2H-chromeno[3,4-c]pyridine-3-carbonyl)benzamide] | 10 to 100 nM | 1 to 10 nM | G (^ 3 to 9.0) |
| COC[C@H]1CN(c2cc(F)c3c4c(c(=O)oc3c2C)CN(C(=O)c2cc(OC)c(C(=O)NS(=O)(=O)N3C5CCC3CC5)cc2F)CC4)CCN1C [Example 305, (R)-N-((7-azabicyclo[2.2.1]heptan-7-yl)sulfonyl)-5-fluoro-4-(10-fluoro-8-(3-(methoxymethyl)-4-methylpiperazin-1-yl)-7-methyl-5-oxo-1,3,4,5-tetrahydro-2H-chromeno[3,4-c]pyridine-3-carbonyl)-2-methoxybenzamide] | 1000 to 5000 nM | 10 to 100 nM | J (>30) |
| [2H]C([2H])([2H])Oc1c(C(=O)NS(=O)(=O)N2C3CCC2CC3)ccc(C(=O)N2CCc3c(c(=O)oc4c(C)c(N5CCN(C)[C@@H](COC)C5)cc(C)c34)C2)c1F [Example 252, (R)-N-((7-azabicyclo[2.2.1]heptan-7-yl)sulfonyl)-3-fluoro-2-(methoxy-d3)-4-(8-(3-(methoxymethyl)-4-methylpiperazin-1-yl)-7,10-dimethyl-5-oxo-1,3,4,5-tetrahydro-2H-chromeno[3,4-c]pyridine-3-carbonyl)benzamide] | 100 to 1000 nM | 1 to 10 nM | J (>30) |
| COC[C@H]1CN(c2cc(C)c3c4c(c(=O)oc3c2C)CN(C(=O)c2ccc(C(=O)NS(=O)(=O)N(C)C)c(N3C5CCC3CC5)c2F)CC4)CCN1C [Example 74, (R)-2-(7-azabicyclo[2.2.1]heptan-7-yl)-N-(N,N-dimethylsulfamoyl)-3-fluoro-4-(8-(3-(methoxymethyl)-4-methylpiperazin-1-yl)-7,10-dimethyl-5-oxo-1,3,4,5-tetrahydro-2H-chromeno[3,4-c]pyridine-3-carbonyl)benzamide] | 1 to 10 nM | 1 to 10 nM | F (<3) |
| CCOc1c(C(=O)NS(=O)(=O)N2C3CCCC2CC3)ccc(C(=O)N2CCc3c(c(=O)oc4c(C)c(N5CCN(C)[C@@H](COC)C5)ccc34)C2)c1F [Example 236] | 10 to 100 nM | 10 to 100 nM | F (<3) |
| COC[C@H]1CN(c2ccc3c4c(c(=O)oc3c2C)CN(C(=O)c2ccc(C(=O)NS(=O)(=O)N(C)C)c(N3C5CCC3CC5)c2)CC4)CCN1C [Example 16, (R)-2-(7-azabicyclo[2.2.1]heptan-7-yl)-N-(N,N-dimethylsulfamoyl)-4-(8-(3-(methoxymethyl)-4-methylpiperazin-1-yl)-7-methyl-5-oxo-1,3,4,5-tetrahydro-2H-chromeno[3,4-c]pyridine-3-carbonyl)benzamide] | 1 to 10 nM | 1 to 10 nM | F (<3) |
| COC[C@H]1CN(c2ccc3c4c(c(=O)oc3c2C)CN(C(=O)c2cc(Cl)c(C(=O)NS(=O)(=O)N(C)C)c(N3C5CCC3CC5)c2)CC4)CCN1C [Example 80, (R)-2-(7-azabicyclo[2.2.1]heptan-7-yl)-6-chloro-N-(N,N-dimethylsulfamoyl)-4-(8-(3-(methoxymethyl)-4-methylpiperazin-1-yl)-7-methyl-5-oxo-1,3,4,5-tetrahydro-2H-chromeno[3,4-c]pyridine-3-carbonyl)benzamide] | 10 to 100 nM | 10 to 100 nM | G (^ 3 to 9.0) |
| COC[C@H]1CN(c2ccc3c4c(c(=O)oc3c2Cl)CN(C(=O)c2ccc(C(=O)NS(=O)(=O)C3(C)CC3)c(OC3CCC3)c2)CC4)CCN1C [Example 10, (R)-4-(7-chloro-8-(3-(methoxymethyl)-4-methylpiperazin-1-yl)-5-oxo-1,3,4,5-tetrahydro-2H-chromeno[3,4-c]pyridine-3-carbonyl)-2-cyclobutoxy-N-((1-methylcyclopropyl)sulfonyl)benzamide] | 10 to 100 nM | 10 to 100 nM | F (<3) |
